# Source: patent US20170112760A1, “CELL DELIVERY SYSTEM AND METHOD” (The Queen's University of Belfast, priority 2014, published 2017)
# Where two headings read alike, the source gives them in different places. Ends that are not written are not given here.
# Columns and labels:
# [1] = tested on: PC-3 prostate cancer cells; assay: Cell proliferation assay (manual cell counts), bisphosphonates and RALA/BP nanoparticles; conditions: for maximum cell kill: FIG. 51
# Protocol: FIG. 51: Cell viability was evaluated by manual counting of the viable adherent cells using a haemocytometer. PC-3 prostate cancer cells were seeded in a 96-well flat-bottom tissue culture plate at a density of 1×10^4 cells per well and incubated in complete culture medium for 24 h. Two hours prior to transfection the cells were conditioned in OptiMEM serum-free medium and subsequently treated with solutions of BP to achieve a final exposure concentration of 5 μM to 1 mM. RALA/BP nanoparticles were prepared using a mass ratio of 10:1 such that the final concentration of BP per well was in the range 5 μM to 75 μM. Cells were incubated at 37° C. with 5% CO2 for 6 h before medium was replaced with completed culture medium and left to incubate for 72 h. Following incubation the cells were trypsinised and counted. Cell viability was expressed as a percentage of the untreated control where the untreated control is considered to be 100% viable. Dose-response curves were obtained for free BP and RALA/BP allowing determination of EC50 values for each. EC50 values refer to the concentration that induces a response halfway between the baseline and the maximum plateau obtained.
# Cell viability was evaluated by manual counting of the viable adherent cells using a haemocytometer as described in. PC-3 prostate cancer cells were seeded in a 96-well flat-bottom tissue culture plate at a density of 1×10^4 cells per well and incubated in complete culture medium for 24 h. Two hours prior to transfection the cells were conditioned in OptiMEM serum-free medium (Invitrogen, UK) optimised for transfection. Cells were treated with solutions of BP to achieve a final exposure concentration of 5 μM to 1 mM. RALA/BP nanoparticles were prepared using a mass ratio of 10:1 such that the final concentration of BP per well was in the range 5 μM to 75 μM. Cells were incubated at 37° C. with 5% CO2 for 6 h before medium was replaced with completed culture medium and left to incubate for 72 h. Following incubation the cells were trypsinised and counted. Cell viability was expressed as a percentage of the untreated control where the untreated control is considered to be 100% viable. Dose-response curves were obtained for free BP and RALA/BP allowing determination of EC50 values for each. EC50 values refer to the concentration that induces a response halfway between the baseline and the maximum plateau obtained (FIG. 46, 51).
# [2] = tested on: PC-3 prostate cancer cell xenograft; assay: PC-3 xenograft model, intratumoural RALA/alendronate; type: in vivo, BALB-C SCID mice; conditions: thrice weekly
# [3] = tested on: ZR-75-1 cells; assay: Transfection with peptide/pEGFP-N1 nanoparticles, GFP expression by flow cytometry; type: cell-based; conditions: for Transfection Efficiency in ZR-75-1 Cells: peptide/DNA nanoparticles, N:P10
# Protocol: In order to test the RALA in vitro, small scale transfections were performed carried out. 5×10^4 cells were seeded onto each well of a 96 well plate and the cells incubated under with complete medium standard conditions for 48 hours. The medium was subsequently removed from the plates and 100 μl of transfection medium (Optimem Invitrogen, UK) was added to each well. Cells were incubated for 2 hours at 37° C. and 5% CO2 standard conditions. In the meanwhile complexes were made up using 1 μg of plasmid DNA with the RALA vector and added to the cells when the two hours had passed. 100 μl of the each N:P ratio were added to each well of the cells. Cells were then incubated for a further 4 hours under standard conditions and the medium with RPMI-1640 supplemented with +10% FCS. (FIG. 4, 31(+Chloroquine), 32 (+Bafilomycin), 33 (+KALA NPs), 34 (+Lipofectamine), 35).
# ZR-75-1 & PC-3 cells that were transfected with RALA/pEGFP-N1 complexes were trypsinised and washed twice with 2% formaldehyde in phosphate buffered saline. The expression of green fluorescent protein was measured by flow cytometry using FACS calibur system (BD Bioscience, UK). The data was analysed using the Flo-Jo software program and fluorescent intensity is reported at 4% gating. (FIG. 7b, 11, 31, 32, 33, 34, 35, 57 (+RAT/pEGFP-N1)).
# [4] = Nanoparticle size and charge analysis (DLS, zeta potential, Malvern Zetasizer); type: physicochemical; conditions: peptide/DNA nanoparticles, N:P10
# Protocol: In order to obtain particle size and charge distributions the mean hydrodynamic particle size measurements RALA complexes were performed using Dynamic Light Scattering (DLS). Dynamic Light Scattering is based upon the principle that when particles are illuminated with a laser, due to Brownian motion there will be scattering of the light. The intensity of the scattered light fluctuates as a result of this Brownian motion caused by bombardment of the particles by solvent molecules. A correlation curve reflecting the decay rate is generated based on fluctuations of the scattered light where a slower correlation decay rate represents a slower moving particle. Based on the Stokes-Einstein equation larger particles move more slowly and, thus, the correlation function can be used to determine the size distribution of the particles. dynamic light scattering (DLS) was used.
# Surface charge measurements of the RALA nanoparticles were determined by Laser Doppler Velocimetry. The zeta potential of the particles was measured using disposable foltable zeta cuvettes. Zeta cuvettes for the measurement of zeta potential were first washed with 70% ethanol, followed by two rinses with double distilled H2O prior to loading the sample. Enough diluted sample used for size measurement was used for determination of zeta potential.
# The nanoparticles were made up at an appropriate range of N:P ratios with at least using 2 μg of DNA in each sample. Nanoparticles were analysed using either and analysis was completed on either the Zetasizer-HS3000 (Malvern Instruments) or the Zetasizer-Nano instrument with DTS software (Malvern Instruments, UK). Zetasizer-Nano (Malvern Instruments) (FIGS. 3, 9, 17-21, 41, 48 & 55).
# [5] = Immune response on repeated intravenous administration (ELISAs, Greiss test); type: in vivo, C57/BL6 mice; conditions: first week
# Protocol: FIG. 8: Immune response of C57BL/6 mice injected with PBS only, PEI only, RALA only, DNA only, PEI/DNA or RALA/DNA nanoparticles. For each injection the equivalent to N:P 10 with 10 μg of DNA was injected. Mice received one injection per week for three weeks. 48 h after each injection three mice were sacrificed and the serum was extracted for analysis. a) IgG, b) IgM, c) IL-1β, d) IL-6 and e) Greiss test for total nitrites.
# For the harvesting of blood and intraperitoneal macrophages, cervical dislocation was the preferred method of euthanasia. Cardiac puncture was performed using a 21 G gauge needle (BD Biosciences, UK). The needle was placed horizontally slightly to the left side of the sternum to go up through the diaphragm. The needle was then withdrawn very slowly until 500 μl of blood was collected and placed in an eppendorf. The eppendorf was then stored at room temperature with an open lid to facilitate coagulation. After 30 min the eppendorfs were centrifuged at 2000 rpm for 10 min. The supernatant containing the serum was carefully decanted and placed into a clean eppendorf and stored at −20° C. until further use. When harvesting intraperitoneal macrophages an incision was made and the peritoneal cavity was flushed out with 30% sucrose (Sigma, UK) solution. The macrophages were stored at 4° C. until they could be cultured (FIG. 8). […]
compound,measurement,setting,value
O=P(O)(O)C(O)(Cc1cccnc1)P(=O)(O)O [risedronate],EC50,[1],78 µM
same,maximum cell kill,[1],20%
NCCCC(O)(P(=O)(O)O)P(=O)(O)O [alendronate],effect on tumour growth vs untreated control,[2],high statistical significance when compared to the untreated control
same,EC50,"[1]; FIG. 16: 10 μM to 250 μM, six hours, 72 hours recovery",97.9 µM
same,EC50,"[1]; FIG. 51: 6 h treatment, 72 h incubation, mass ratio 10:1",100 µM
CC(O)(P(=O)(O)O)P(=O)(O)O [etidronate],percentage cell survival with increasing BP,[1]; FIG. 51d,no reduction in percentage cell survival with increasing BP
"WEARLARALARALARLARALARALRACEA (amphipathic peptide sequence (Table 2)) [Peptide 2, H removed]",Transfection Efficiency in ZR-75-1 Cells,[3],55%
same,Charge (mV),[4],22 mV
O=P(O)(O)C(O)(Cn1ccnc1)P(=O)(O)O [zoledronate],EC50,[1],27.6 µM
same,maximum cell kill,[1],82%
WEARLARALARALARHLARALARALRACEA [RALA],TNFα response,[5],significantly lower initial response of TNFα than the PEI only treated animals
"REARLARALARALARLARALARALRAREA (amphipathic peptide sequence (Table 2)) [Peptide 5, H Removed and W replaced with R and C replaced with R]",Transfection Efficiency in ZR-75-1 Cells,[3],46%
same,Charge (mV),[4],13 mV
"WEARLARALARALARELARALARALRACEA (amphipathic peptide sequence (Table 2)) [Peptide 3, H replaced with glutamic acid (E)]",Transfection Efficiency in ZR-75-1 Cells,[3],41%
same,Charge (mV),[4],24 mV
"WEARLARALARALARHLRACEA (22mer protein sequence (Table 2)) [Peptide 22mer, comparative peptide, reference compound]",ability to condense DNA into nanoparticles and transfect cells,[3],unable to condense DNA into nanoparticles and transfect cells
"REARLARALARALARELARALARALRAREA (amphipathic peptide sequence (Table 2)) [Peptide 6, H Replaced with E and W replaced with R and C replaced with R]",Transfection Efficiency in ZR-75-1 Cells,[3],43%
same,Best Size (nm),[4],308 nm
same,Charge (mV),[4],6 mV
"REARLARALARALARLARALARALRACEA (amphipathic peptide sequence (Table 2)) [Peptide 4, H Removed and W replaced with R]",Transfection Efficiency in ZR-75-1 Cells,[3],50%
same,Charge (mV),[4],12 mV
